Experimental data reported in patent publication US20090098548A1, “MODULATORS OF ENZYMATIC NUCLEIC ACID ELEMENTS MOBILIZATION” (priority 2004, published 2009).
“Also recorded” adds a separate entry of the source.

Experiments:
Tn5 transposase = target: T1, Tn5 transposase (Escherichia coli, UniProt Q46731, E54K/L372P/M56A); type: binding
T1 construct: made in house
Experimental: For FP analysis, 60 μL reactions were analyzed using the FP protocol on a Wallac Victor V plate reader and a 7% native polyacrylamide gel was used in gel shift assays. For compound screening and subsequent analysis, 1 μL of either DMSO or test compound (final concentration 80 KIM) was added to the synapsis reactions. Compound screening was carried out using a Beckman Coulter Biomek FX in a 384 well format. Compounds identified as hits were rescreened using gel shift assays under synapsis conditions with a 120 μM compound concentration. IC50 values were obtained by fitting inhibitor titration data (0, 0.01, 0.05, 0.1, 0.5, 2.5, 10, 20, 35, 50, 100, 200, 400, 800 μM) to an exponential decay.

[1] = system: restriction enzyme BsmA I; experiment: Inhibition of the restriction enzyme BsmA I (compound specificity); type: biochemical; settings: 120 μM compound
Experimental: Inhibition of the restriction enzyme BsmA I was analyzed to determine compound specificity. Reactions were carried out in 2×NEB Buffer 3 with 160 nM dsDNA, 10 units of BsmA I (New England Biolabs), and 120 μM lead compound. Reactions were incubated at 55° C. for one hour followed by a 20 minute 80° C. heat inactivation step prior to gel electrophoresis. Samples were loaded onto a 9% native polyacrylamide gel and run at 300V for 2.5 hours. Gels were subsequently imaged and quantitated as described for the synapsis assays.

HIV-1 = system: HIV-1
Experimental: HIV-1 transduction assay and inhibitory screen: 10,000 Ghost-R5 cells per well were plated in a 384 well plate in 49 μL media. 18 hours after plating, 1 μL of inhibitory compound, dissolved in DMSO, was added and gently mixed into solution. Following a 1 hour 37° C. incubation, HIV-1 virions were added in a final infectious volume of 100 μL. 44-48 hours after infection, 87 μL of media was removed from each well, and 13 μL/well of Bright-Glo luciferase detection reagent (Promega) was added. After a 2 minute incubation, the plates were read on a multiwell plate luminometer.
In parallel, cells infected with virus and compound were assayed for luciferase expression by the addition of […] of Bright-Glo reagent, as described above. In this way, effect of the inhibitory compounds on luciferase expression brought about by successful transduction was measured in the constant presence of the compounds.

[2] = system: HIV reverse transcription; experiment: Quantitative real-time PCR of reverse transcripts in acutely infected cells; type: cell-based, HIV-1; settings: 75 μM inhibitor, QPCR
Experimental: Quantitative real-time PCR of reverse transcripts, detection of transduction in newly infected cells, and effect of compounds on established provirus expression in stably infected cells: 10,000 Ghost-R5 cells were plated in 96 well dishes, treated with compound in a total volume of 75 μL, and incubated at 37° C. for 1 hour. Virus was then added in an additional volume of 25 μL. The final infectious volume was 100 μL, the final DMSO concentration was 1%, and the final compound concentration was as indicated. DNA was harvested using the DNeasy kit (Qiagen) 24 hours after infection in the constant presence of inhibitory compounds. Late DNA products of HIV reverse transcription were quantitated using the primers MH531 and MH532, and the probe LTR-P, as described in Burke, T. R. et al., J Med Chem 38:4171-8, 1995, herein incorporated by reference in its entirety.

[3] = system: luciferase expression from proviral DNA; experiment: Established provirus luciferase expression in stably infected Ghost-R5 cells; type: cell-based, HIV-1; settings: 75 μM inhibitor, chronically infected cells
Experimental: To assess the potential effects of the inhibitory compounds on post-integration events such as transcription, translation, and luciferase enzyme stability and activity, Ghost-R5 cells stably infected several weeks earlier with the same virus preparation were incubated with inhibitory compound in 96 well dishes and luciferase activity was monitored 48 hours later by the addition of 100 μL of Bright-Glo reagent to each well, as described above.

HIV-1 integrase = HIV-1 integrase (Human immunodeficiency virus type 1 group M subtype B, UniProt P04585); experiment: HIV-1 integrase assay (3' strand processing, PAGE); type: biochemical; set-up: made in house
Experimental: HIV-1 integrase assay: HIV-1 integrase activity was measured as described in Daniel, R. et al., AIDS Res Hum Retroviruses 20:135-44, 2004 (incorporated by reference in its entirety), except that 1.0 μL of either DMSO or inhibitor were added to the reactions. Briefly, HIV-1 integrase (1 μM, final concentration) was pre-incubated with various concentrations of inhibitor at 30° C. for 30 min. A 21-base pair ^32P labeled substrate (1×10^6 dpm), representing the U5 end of the viral genome, and MnCl2 (10 mM, final concentration) were subsequently added to the reaction. The reaction proceeded for 15 min. at 37° C. The reactions were subsequently quenched using EDTA (10 mM, final concentration), and the products separated on a 20% denaturing polyacrylamide gel.

Ghost-R5 cells = experiment: Cytotoxicity assay (Cell Titer Glo); type: cell-based
Experimental: Cytotoxicity assay: Cytotoxicity assays were performed exactly as the infection assay described above, except media without virus was added following compound addition, and Cell Titer Glo (Promega) viability reagent was added in place of Bright Glo.

O=C(/C=C/c1ccccc1)C1=C(O)C(=O)N(c2cccc(C(F)(F)F)c2)C1c1ccc([N+](=O)[O-])cc1 (stereo not shown) [compound 10-F]
inhibition of transposase assembly (in words) (Tn5 transposase): inhibit
inhibition of BsmA I activity [1]: partially inhibits
inhibition of HIV-1 infection in cells (in words) (HIV-1): inhibit
effect on reverse transcription (viral DNA synthesis) [2]: either uninhibited, or only inhibited to a small extent; also recorded: no significant inhibitory effect
effect on luciferase expression from proviral DNA [3]: no significant inhibitory effect
inhibition of integrase in vitro (in words) (HIV-1 integrase): inhibit

O=C(/C=C/c1ccccc1)C1=C(O)C(=O)N(c2ccccc2)C1c1cccc([N+](=O)[O-])c1 (stereo not shown) [compound 10]
inhibition of transposase assembly (in words) (Tn5 transposase): inhibit
inhibition of HIV-1 infection in cells (in words) (HIV-1): inhibit
effect on gross cell viability (Ghost-R5 cells; 75 μM inhibitor): no significant inhibitory effect
LD50 relative to ED50 (Ghost-R5 cells; Ghost-R5 cells, cytotoxicity vs transduction): at least 2 fold
effect on reverse transcription (viral DNA synthesis) [2]: either uninhibited, or only inhibited to a small extent; also recorded: no significant inhibitory effect
effect on luciferase expression from proviral DNA [3]: no significant inhibitory effect
inhibition of integrase in vitro (in words) (HIV-1 integrase): inhibit
